# ChEMBL document CHEMBL1201862, “PubChem BioAssay data set” (2004)
# Activity calls are given as the source filed them. Cut-off read from the data, not from the text of the source, for most assays here: actives have a measured EC50 and inactives only a lower limit.
# Key:
# [1] = inhibitors of SNCA 5'UTR-driven reporter translation, confirmation, H4 neuroglioma cells, luminescence (AID 1988); format: functional, cell-based
# [2] = inhibitors of firefly luciferase expression or activity, dose response, H4 neuroglioma cells, luminescence (AID 1990); format: functional, cell-based
# [3] = Luminescence Cell-Based Dose Response HTS to Identify Inhibitors of 5'UTR Stem-Loop Driven Prion Protein mRNA Translation in H4 Neuroglioblastoma Cells. [Related pubchem assays: 1827 (Project Summary), 1813 (Primary HTS)]; format: functional
# [4] = Luminescence Cell-Based Dose Response HTS to Identify Activators of Luciferase Translation or Activity in H4 […] Cells. [Related pubchem assays: 1829 (Project Summary), 1814 (Primary HTS)]; format: functional
# [5] = Luminescence Cell-Based Dose Confirmation HTS to Identify Activators of 5'UTR Stem-Loop Driven Alpha-Synuclein mRNA Translation in H4 Neuroglioblastoma Cells. [Related pubchem assays: 1829 (Project Summary), 1814 (Primary HTS)]; format: functional
# H4 = assay: Luminescence Cell-Based Dose Response HTS to Identify Activators of 5'UTR Stem-Loop Driven Prion Protein mRNA Translation in H4 Neuroglioblastoma Cells. [Related pubchem assays: 1829 (Project Summary), 1814 (Primary HTS)]; format: functional; settings: Homo sapiens
# [6] = biological target: T1, Polyadenylate-binding protein 1 (Homo sapiens, UniProt P11940); assay: PABP1 MLLE–PAM2 binding inhibitor potency, dose response, biochemical, fluorescence polarization, FITC-PAM2 peptide (AID 602259); format: functional; settings: read-out: IC50_Mean
# [7] = biological target: T1, Polyadenylate-binding protein 1; assay: PABP1 MLLE–PAM2 interaction inhibitors, dose response, miRNA deadenylation inhibitor project, biochemical, fluorescence polarization, Cy5-PAM2 peptide, secondary (AID 602260); format: functional; settings: read-out: IC50_Mean
# Streptokinase A = biological target: T2, Streptokinase A (Streptococcus pyogenes serotype M1, UniProt P10520); assay: S. pyogenes streptokinase expression inhibitors, potency, dose response, plasminogen activation absorbance, OD405 (AID 1914); format: functional, Streptococcus pyogenes M1 GAS;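 note: secreted streptokinase activity via plasminogen activation per viability signal from cell pellet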
# T2 sequence (P10520 whole entry): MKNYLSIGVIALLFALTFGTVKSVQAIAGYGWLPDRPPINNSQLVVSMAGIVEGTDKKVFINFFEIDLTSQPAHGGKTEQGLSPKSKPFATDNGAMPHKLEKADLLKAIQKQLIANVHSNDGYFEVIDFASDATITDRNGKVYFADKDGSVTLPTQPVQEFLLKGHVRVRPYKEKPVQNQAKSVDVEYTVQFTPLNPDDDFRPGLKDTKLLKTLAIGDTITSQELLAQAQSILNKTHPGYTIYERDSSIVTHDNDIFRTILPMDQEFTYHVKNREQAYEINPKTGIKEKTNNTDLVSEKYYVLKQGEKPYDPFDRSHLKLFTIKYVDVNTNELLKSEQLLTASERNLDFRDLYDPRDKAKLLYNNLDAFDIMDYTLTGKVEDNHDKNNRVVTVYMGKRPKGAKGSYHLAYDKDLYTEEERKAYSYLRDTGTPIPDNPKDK
# [8] = system: Streptococcus sp. 'group A'; assay: growth inhibition of control SK(-) GAS strain, dose response, counter-screen for streptokinase expression inhibitor project, luminescence, kanamycin, BacTiterGlo, confirmation (AID 1900); format: functional, organism-based
# Streptococcus = assay: Group A Streptococcus viability loss, dose response, counter-screen for streptokinase expression inhibitor project, luminescence, BacTiterGlo (AID 1915); format: functional, organism-based;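 note: potency for reduction of bacterial viability or growth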
# [9] = biological target: T3, Heat shock factor protein 1 (Mus musculus, UniProt P38532); assay: inhibition of MG132-induced HSE-luciferase signal, confirmation, cell-based, NIH3T3, luminescence, dose retest (AID 2382); format: functional;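 note: NIH3T3 fibroblasts with HSF1-driven luciferase reporter stressed by proteasome inhibitor MG132; luminescence from HSF1-driven luciferase expression after 8 hours of MG132 stress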
# T3 sequence (P38532 whole entry): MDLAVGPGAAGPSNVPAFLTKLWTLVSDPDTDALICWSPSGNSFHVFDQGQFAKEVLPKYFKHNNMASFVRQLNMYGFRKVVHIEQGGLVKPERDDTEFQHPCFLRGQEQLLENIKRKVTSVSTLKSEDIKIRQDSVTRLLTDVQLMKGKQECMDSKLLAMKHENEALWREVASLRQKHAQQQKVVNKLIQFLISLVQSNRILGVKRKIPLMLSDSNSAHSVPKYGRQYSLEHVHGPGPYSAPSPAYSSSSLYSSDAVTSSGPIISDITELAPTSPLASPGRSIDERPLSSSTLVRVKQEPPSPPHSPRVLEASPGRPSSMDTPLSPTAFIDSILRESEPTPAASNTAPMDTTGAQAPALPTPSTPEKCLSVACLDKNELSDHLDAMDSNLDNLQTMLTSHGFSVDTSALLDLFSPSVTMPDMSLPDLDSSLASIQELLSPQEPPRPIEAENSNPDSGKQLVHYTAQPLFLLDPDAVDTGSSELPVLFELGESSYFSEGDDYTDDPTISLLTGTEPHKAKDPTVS
# [10] = biological target: Luciferin 4-monooxygenase (Photinus pyralis, UniProt P08659); assay: firefly luciferase enzyme inhibitors, dose response, biochemical, luminescence (AID 1891)
# [11] = Luminescence Cell-Based Dose Confirmation HTS to Identify Inhibitors of Platelet Dense Granule Release. [Related pubchem assays: 1663 (Primary HTS), 1678 (Summary of Project)]; format: functional
# Cytochrome P450 2C9 = Cytochrome P450 2C9 (Homo sapiens, UniProt P11712)
# Paired box protein Pax-8 = Paired box protein Pax-8 (Homo sapiens, UniProt Q06710); assay: inhibitors of PAX8-driven TPO luciferase reporter, dose response, RMG-I cells, cherry-pick (AID 687027); format: functional, cell-based;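 note: luciferase reporter driven by Pax8 target thyroperoxidase promoter measured by SteadyGlo luminescence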
# [12] = Luminescence Cell-Based Dose Retest to Confirm Inhibitors of Cancer Stem Cells. [Related pubchem assays (depositor defined):AID2717, AID2721]; format: functional; settings: Homo sapiens
# Chain of Luciferin 4-monooxygenase (P08659 whole entry): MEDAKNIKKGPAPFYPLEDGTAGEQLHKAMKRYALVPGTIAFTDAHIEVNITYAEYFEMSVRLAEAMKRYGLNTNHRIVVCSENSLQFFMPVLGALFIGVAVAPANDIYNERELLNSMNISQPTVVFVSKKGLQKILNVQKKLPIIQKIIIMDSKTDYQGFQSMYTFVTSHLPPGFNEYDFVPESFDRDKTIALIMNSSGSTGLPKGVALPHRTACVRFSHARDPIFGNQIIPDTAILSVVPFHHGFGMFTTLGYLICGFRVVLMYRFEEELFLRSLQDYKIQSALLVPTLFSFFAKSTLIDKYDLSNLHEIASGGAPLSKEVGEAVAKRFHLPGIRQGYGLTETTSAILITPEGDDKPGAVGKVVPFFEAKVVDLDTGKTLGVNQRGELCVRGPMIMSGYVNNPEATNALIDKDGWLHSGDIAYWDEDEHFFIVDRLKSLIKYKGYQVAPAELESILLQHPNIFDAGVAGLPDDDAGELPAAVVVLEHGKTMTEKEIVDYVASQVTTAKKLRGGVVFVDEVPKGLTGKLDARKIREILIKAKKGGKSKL
# T1 sequence (P11940 whole entry): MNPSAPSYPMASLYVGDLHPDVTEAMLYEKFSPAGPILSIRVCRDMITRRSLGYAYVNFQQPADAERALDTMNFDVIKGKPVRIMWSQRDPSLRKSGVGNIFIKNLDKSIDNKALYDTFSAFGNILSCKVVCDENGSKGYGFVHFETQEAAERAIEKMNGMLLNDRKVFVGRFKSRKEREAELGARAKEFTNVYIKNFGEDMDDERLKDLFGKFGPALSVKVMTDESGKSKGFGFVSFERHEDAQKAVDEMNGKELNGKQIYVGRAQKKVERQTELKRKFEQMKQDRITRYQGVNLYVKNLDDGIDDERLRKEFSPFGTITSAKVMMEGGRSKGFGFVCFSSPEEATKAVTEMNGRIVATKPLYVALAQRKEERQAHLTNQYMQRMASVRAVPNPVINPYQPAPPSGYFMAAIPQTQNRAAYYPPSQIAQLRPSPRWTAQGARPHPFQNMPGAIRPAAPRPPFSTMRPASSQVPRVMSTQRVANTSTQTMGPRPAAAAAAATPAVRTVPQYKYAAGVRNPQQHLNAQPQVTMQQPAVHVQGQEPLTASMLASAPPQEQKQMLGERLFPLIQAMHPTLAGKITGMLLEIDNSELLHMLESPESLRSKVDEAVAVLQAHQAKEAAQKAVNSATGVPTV
# Chain of Paired box protein Pax-8 (Q06710 whole entry): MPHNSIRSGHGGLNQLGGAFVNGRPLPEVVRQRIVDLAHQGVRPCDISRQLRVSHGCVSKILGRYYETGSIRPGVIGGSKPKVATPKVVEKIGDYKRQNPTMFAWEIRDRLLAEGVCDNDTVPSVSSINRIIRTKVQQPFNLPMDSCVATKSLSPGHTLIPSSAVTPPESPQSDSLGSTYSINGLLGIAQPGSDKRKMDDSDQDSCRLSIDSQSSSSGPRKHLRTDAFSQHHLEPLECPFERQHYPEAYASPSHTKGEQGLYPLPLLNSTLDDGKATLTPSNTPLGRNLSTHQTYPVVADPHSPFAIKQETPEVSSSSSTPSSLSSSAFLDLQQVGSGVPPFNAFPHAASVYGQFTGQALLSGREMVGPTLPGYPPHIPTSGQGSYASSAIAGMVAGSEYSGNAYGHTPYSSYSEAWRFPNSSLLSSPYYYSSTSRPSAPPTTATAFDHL
# Chain of Cytochrome P450 2C9 (P11712 whole entry): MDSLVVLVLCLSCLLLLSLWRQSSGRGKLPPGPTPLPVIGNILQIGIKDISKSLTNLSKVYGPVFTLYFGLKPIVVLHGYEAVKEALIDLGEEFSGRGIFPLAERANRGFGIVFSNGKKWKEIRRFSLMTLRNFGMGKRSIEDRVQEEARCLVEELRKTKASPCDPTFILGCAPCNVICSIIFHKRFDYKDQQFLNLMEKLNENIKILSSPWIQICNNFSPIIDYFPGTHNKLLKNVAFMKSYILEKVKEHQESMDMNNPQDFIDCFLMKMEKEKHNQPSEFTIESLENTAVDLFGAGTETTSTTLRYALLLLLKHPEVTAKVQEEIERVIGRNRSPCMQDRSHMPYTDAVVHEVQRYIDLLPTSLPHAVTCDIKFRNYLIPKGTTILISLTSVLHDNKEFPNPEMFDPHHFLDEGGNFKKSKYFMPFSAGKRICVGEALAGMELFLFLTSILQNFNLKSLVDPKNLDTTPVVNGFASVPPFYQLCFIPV
smiles,measurement,setting,value
Cc1cc(/C=C2/SC(=S)N(c3cccc(C(F)(F)F)c3)C2=O)c(C)n1-c1cccnc1,EC50,[1],> 120 µM (not active)
same,EC50,[2],> 120 µM (not active)
same,EC50,[3],> 120 µM (not active)
CCc1ccc(C(=O)Nn2cnc3ccccc3c2=O)cc1,EC50,[4],26.8 µM (active)
same,EC50,[5],2.82 µM (active)
same,EC50,H4,0.887 µM (active)
CC1CC(C)(C)NC(=S)S1 (stereo not drawn),IC50,[6],> 66 µM (inactive)
same,IC50,[7],> 66 µM (inactive)
Fc1ccc(-c2csc3ncnc(N4CCc5ccccc5C4)c23)cc1,EC50,Streptokinase A,6.92 µM (active)
same,EC50,[1],> 120 µM (not active)
same,EC50,[8],9.67 µM (active)
same,EC50,Streptococcus,> 50 µM (not active)
same,EC50,[2],23.6 µM (active)
same,EC50,[3],> 120 µM (not active)
OCCNc1nc2nonc2nc1NCCO,EC50,[9],> 195 µM (not active)
CCOC(=O)C1(Cc2ccc(OC)cc2)CCN(C(=O)c2csc(C)n2)CC1,EC50,[9],> 195 µM (not active)
O=C(/C=C/c1ccccc1)NC(=S)Nc1ccccc1O,EC50,[4],66.3 µM (active)
same,EC50,[5],0.387 µM (active)
same,EC50,H4,1.9 µM (active)
O=C(CSc1ccc2nnc(-c3ccccc3)n2n1)N1CCCCC1,IC50,[6],> 66 µM (inactive)
same,IC50,[7],> 66 µM (inactive)
O=C(NCCc1ccccc1)c1ccccc1NC(=O)C1CCCCC1C(=O)O (stereo not drawn),EC50,[4],17.9 µM (active)
same,EC50,[5],19.1 µM (active)
same,EC50,H4,5.14 µM (active)
Cc1cc(C#N)c2ccccc2n1,EC50,[10],> 112 µM (not active)
same,EC50,[11],> 112 µM (not active)
CC(=O)Nc1ccc(Nc2nc(-c3cc4ccccc4oc3=O)cs2)cc1,EC50,[4],0.676 µM (active)
same,EC50,[5],0.397 µM (active)
same,EC50,H4,1.7 µM (active)
Cc1ccc(S(=O)(=O)N2CCCC(C(=O)NCCc3ccc4c(c3)OCO4)C2)cc1 (stereo not drawn),EC50,[9],> 195 µM (not active)
O=C(Cc1ccc2c(c1)CCCC2)Nc1ccccc1Br,AC50,Cytochrome P450 2C9,15.8 µM (inconclusive)
same,IC50,[6],> 66 µM (inactive)
same,IC50,[7],> 66 µM (inactive)
COc1ccc(C(=S)N2CCN(c3ccccc3C)CC2)cc1,IC50,[6],> 66 µM (inactive)
same,IC50,[7],> 66 µM (inactive)
Cc1ccc(-n2c(C)cc3c2CCCC3=O)cc1,IC50,[6],41.2 µM (inactive)
same,IC50,[7],> 66 µM (inactive)
COc1ccccc1N1CCN(C(=O)CSc2ncnc3c2cnn3-c2ccc(C)c(C)c2)CC1,EC50,[4],15.4 µM (active)
same,EC50,[5],39.4 µM (active)
same,EC50,H4,54.1 µM (active)
CCOC(=O)c1sc2nc(NC(=O)C3CC3)sc2c1C,EC50,[4],57.6 µM (active)
same,EC50,[5],10.8 µM (active)
same,EC50,H4,28.4 µM (inconclusive)
COc1cc(NC(=O)CSc2nnnn2-c2ccccc2)cc(OC)c1OC,EC50,[9],> 195 µM (not active)
Cc1nnc2nc(SCC(=O)NC3CCCCC3)n(-c3ccc(Br)cc3)c(N)c1-2,AC50,Paired box protein Pax-8,8.51 µM (active)
same,AC50,[12],9.82 µM (active)
same,EC50,[1],9.53 µM (active)
same,EC50,[2],14.6 µM (active)
same,EC50,[3],13.9 µM (active)
CC1CC(c2ccccc2)=Nc2ccccc2N1 (stereo not drawn),EC50,[4],10.6 µM (active)
same,EC50,[5],8.32 µM (active)
same,EC50,H4,43 µM (active)
O=C(c1ccccc1)N(CCO)Cc1cc2cc3c(cc2nc1O)OCCO3,IC50,[6],> 66 µM (inactive)
same,IC50,[7],> 66 µM (inactive)
Cc1cccc(NC2(C(F)(F)F)N=C3SCCN3C2=O)n1 (stereo not drawn),IC50,[6],> 66 µM (inactive)
same,IC50,[7],> 66 µM (inactive)
c1csc(-c2nnsc2-c2nc3ccccc3[nH]2)c1,EC50,[9],> 195 µM (not active)
Cc1cccc(CC(=O)N2CCN=C2SCc2ccc([N+](=O)[O-])cc2)c1,IC50,[6],> 66 µM (inactive)
same,IC50,[7],> 66 µM (inactive)
Cc1cc(C)cc(NC(S)=Nc2ccc(Cl)c(Cl)c2)c1,IC50,[6],> 66 µM (inactive)
same,IC50,[7],> 66 µM (inactive)
CC(=O)C1C(c2ccc(Cl)cc2)NC(=O)NC1(O)C(F)(F)F (stereo not drawn),EC50,[10],> 112 µM (not active)
same,EC50,[11],> 112 µM (not active)
COc1ccc(Cl)cc1NC(=O)Nc1cc(C)on1,EC50,[10],> 112 µM (not active)
same,EC50,[11],> 112 µM (not active)
Cc1ccccc1OCC(=O)Nc1ccc2c(c1)C(=O)N(CCC(=O)O)C2=O,EC50,[9],32.6 µM (active)
O=C1OC(NC(=O)c2ccccc2)C(n2cc(CO)nn2)=C1Cl (stereo not drawn),EC50,[9],35.7 µM (active)
Cc1c(C(=O)N2CCCC2)sc(NC(=O)c2cccc(Cl)c2)c1C#N,EC50,[10],> 112 µM (not active)
same,EC50,[11],> 112 µM (not active)
COc1ccc(OCC(=O)N2CCN(c3cccc(C(F)(F)F)c3)CC2)cc1,EC50,[9],> 195 µM (not active)
COC(=O)c1[nH]c2ccccc2c1NC(=O)CN1CCN(C(=O)c2ccco2)CC1,EC50,[10],> 112 µM (not active)
same,EC50,[11],> 112 µM (not active)
COc1ccc(C(=O)NC(=S)NCCO)cc1Br,EC50,[9],> 195 µM (not active)
CC(C)c1nnc(SCC(=O)NCCC2=CCCCC2)n1N,IC50,[6],> 66 µM (inactive)
same,IC50,[7],> 66 µM (inactive)
COCCn1c(SCC(=O)NCC2CCCO2)nc2c(c1=O)SCC2 (stereo not drawn),IC50,[6],> 66 µM (inactive)
same,IC50,[7],> 66 µM (inactive)
Cc1cc(NC(=O)CSc2nccn2-c2cccc(Cl)c2)no1,IC50,[6],> 66 µM (inactive)
same,IC50,[7],> 66 µM (inactive)
Oc1ccc[n+](CCCCC[n+]2cccc(O)c2)c1,EC50,[10],> 112 µM (not active)
same,EC50,[11],19 µM (active)
CC1(Cc2ccc(OC(F)(F)F)cc2)C(=O)Nc2ccc(S(=O)(=O)NC3CCCCC3)cc21 (stereo not drawn),AC50,Paired box protein Pax-8,9.35 µM (active)
COc1cccc(S(=O)(=O)N(C)C[C@H]2OCc3ccccc3-c3c(n(C)c4ccccc34)C(=O)N([C@@H](C)CO)C[C@H]2C)c1,AC50,Paired box protein Pax-8,6.16 µM (active)
C[C@H](CO)N1C[C@H](C)[C@@H](CN(C)CC2CCCCC2)Oc2ccc(NC(=O)Nc3ccc4c(c3)OCO4)cc2CC1=O,AC50,Paired box protein Pax-8,11 µM (active)
COC(=O)c1sccc1N/N=C/c1ccc(OC)c(OC)c1OC,EC50,[4],9.96 µM (active)
same,EC50,[5],87.4 µM (active)
same,EC50,H4,40.6 µM (active)
O=C(c1ccccc1)c1cc2ccc(O)cc2oc1=O,EC50,Streptokinase A,> 150 µM (not active)
same,EC50,[10],1.14 µM (active)
same,EC50,[11],< 0.701 µM (active)
same,EC50,[8],8.12 µM (active)
same,EC50,Streptococcus,18.5 µM (active)
CC(=O)Nc1c(I)c(NC(C)=O)c(I)c(C(=O)O)c1I [DIATRIZOATE MEGLUMINE],EC50,[9],> 195 µM (not active)
